Measured values: patent publication US20210238197A1, “NOVEL OXOQUINOLIZINE COMPOUNDS FOR THE TREATMENT AND PROPHYLAXIS OF BACTERIAL INFECTION” (Hoffmann-La Roche Inc., priority 2018, published 2021)
In brackets after ≈: the same amount, converted by molar mass. Like-named read-outs stand apart in the source and are kept apart here.

Experiments:
[1] = system: multiple species and strains; test: microbe, parasite or virus in culture; parameters: MIC S9 / MIC S7 / MIC S11 / MIC S8 / MIC S10: unit not given beside the values; conditions: for MIC S9: E. coli ATCC 35218
Experimental: The MIC of antibacterial compounds against multiple species and strains was determined using the broth microdilution method according to M07-A10 Clinical and Laboratory Standards Institute (CLSI) guidelines (CLSI (2015) Methods for dilution antimicrobial susceptibility tests for bacteria that grow aerobically; Approved Standard, Tenth Edition. CLSI Document M7-A10 (ISBN 1-56238-987-4). Wayne, Pa.: Clinical and Laboratory Standards Institute, 19087, USA.). In short, bacterial strain preparation was performed on D1 and D2. […] 5-10 well-isolated colonies of similar morphology were selected and re-streaked onto fresh agar plates using sterile loops and incubated for 20-24 hr at 35±2° C. Bacterial strains were subcultured two times to ensure fresh inoculums for MIC screening. […] Alternatively, 1-2 colonies were transferred into 500 μL of saline and OD600 was adjusted to ˜0.1 using an OD meter. Bacterial inoculum was diluted by 1:280 for Gram-positive strains and 1:400 for Gram-negative strains into corresponding medium broth (CAMHB, CAMHB+3% lysed horse blood, HTM) (e.g. 35.6 μL of inoculum into 10 mL of CAMHB or 25 μL of inoculum into 10 mL of CAMHB). For compound plate, the compound stock solutions were prepared in 100% DMSO on the day of MIC screening and used immediately. Compound stock concentration=[(highest testing concentration)×100 μL/2 μL] (e.g. if the required highest testing concentration is 64 μg/mL in assay plates, stock concentration=64 μg/mL×100 μL/2 μL=3.2 mg/mL). […] 1 μL of each well was transferred in a new MTP, which served as the test plate by subsequent inoculation. The bacterial suspension prepared above is dispensed at 98 μL/well within 15 minutes after preparation. Negative controls (lack of bacterial cells) and growth control wells (lack of compound) were included in all plates. MTPs were incubated for 18-24 hours at 35±2° C. in ambient air. The MIC was recorded and CFUs were calculated on Day 4. The assay plate was placed on the top of MIC reader, and the magnification mirror was adjusted to read each wells, recording growth status as raw data. Photo images of each assay plates were recorded using Q Count 530 (Spiral Biotech). The MIC value of each compound, expressed as μg/mL, was determined as the lowest concentration required for complete growth inhibition (no visible growth).

[2] = Cytotoxicity assay (HepG2, CellTiter-Blue); type: cell-based; conditions: human; HepG2 cells, 3 days treatment; >100 = detection limit
Experimental: The cytotoxicity of compounds of present invention was assessed by HepG2 assay. HepG2 cells (ATCC RB-8065™) were seeded into 96-well plates (1.2×10^4 cells per well) and treated with compounds for 3 days, cell viability was measured at day 3 post compound treatment using the CellTiter-Blue® Cell Viability Assay (Promega, Cat. No. G8082). […], of Cell titer blue buffer were added to each well of the cells, which were incubated for 3 hours at 37° C., and the fluorescence value was measured by a plate reader (Molecular Device SpectraMax M2). The CC50 value of each compound is plotted with GraphPad Prism using four parameter logistic equation.

S. aureus (ATCC29213) = test: 50% growth inhibitory concentration (IC50) determination assay, S. aureus; type: cell-based; conditions: Staphylococcus aureus, ATCC29213; Iso-Sensitest broth, growth by OD 600 nm over 16 h; <0.098 = detection limit
Experimental: (§1) The in vitro antimicrobial activity of the compounds against S. aureus (ATCC29213), K. pneumoniae (ATCC10031), and A. baumannii (ATCC17978), was determined according to the following procedure: The assay used a 10-points Iso-Sensitest broth medium to measure quantitatively the in vitro activity of the compounds against S. aureus ATCC29213, K. pneumoniae ATCC 10031, and A. baumannii ATCC17978. Stock compounds in DMSO were serially two-fold diluted (range from 50 to 0.097 μM final concentration) in 384 wells microtiter plates and inoculated with 49 μL the bacterial suspension in Iso-Sensitest broth medium to have a final cell concentration of ˜5×10^5 CFU/mL in a final volume/well of 50 μL/well. Microtiter plates were incubated at 35±2° C. Bacterial cell growth was determined with the measurement of optical density at λ=600 nm each 20 minutes over a time course of 16 h.

A. baumannii (ATCC17978) = test: 50% growth inhibitory concentration (IC50) determination assay, A. baumannii; type: cell-based; conditions: Acinetobacter baumannii, ATCC17978; Iso-Sensitest broth, growth by OD 600 nm over 16 h; <0.098 = detection limit
Experimental: as §1

[3] = system: K. pneumoniae (ATCC10031); test: 50% growth inhibitory concentration (IC50) determination assay, K. pneumoniae; type: cell-based; conditions: Klebsiella pneumoniae, ATCC10031; Iso-Sensitest broth, growth by OD 600 nm over 16 h; <0.098 = detection limit
Experimental: as §1

[4] = Acinetobacter baumannii, ATCC19606, read-out: MIC S1, A. baumannii ATCC 19606
[5] = Acinetobacter baumannii, ATCC51432, read-out: MIC S2, A. baumannii ATCC 51432
[6] = Acinetobacter baumannii, ATCCBAA747, read-out: MIC S3, A. baumannii ATCC BAA-747
[7] = Escherichia coli, ATCC25922, read-out: MIC S11, E. coli ATCC 25922
[8] = Escherichia coli, ATCCBAA2340, read-out: MIC S10, E. coli ATCC BAA-2340
[9] = Klebsiella pneumoniae, ATCC10031, read-out: MIC S4, K. pneumoniae ATCC 10031
[10] = Klebsiella pneumoniae, ATCC700603, read-out: MIC S5, K. pneumoniae ATCC 700603
[11] = Klebsiella pneumoniae, ATCCBAA2146, read-out: MIC S6, K. pneumoniae ATCC BAA-2146
[12] = Pseudomonas aeruginosa, ATCC27853, read-out: MIC S7, P. aeruginosa ATCC 27853
[13] = Pseudomonas aeruginosa, ATCCBAA2113, read-out: MIC S8, P. aeruginosa ATCC BAA-2113

Compound	MIC [1, 4]	MIC [1, 5]	MIC [1, 6]	MIC S9 [1]	MIC [1, 7]	MIC [1, 8]	MIC [1, 9]	MIC [1, 10]	MIC [1, 11]	MIC [1, 12]	MIC [1, 13]	CC50 at 3 days [2]	IC50 (S. aureus (ATCC29213))	IC50 (A. baumannii (ATCC17978))	IC50 [3]
CNc1cc(F)c(Cl)c2c1[nH]c1ncc(-c3ccc4ccc(C(=O)O)c(=O)n4c3)c(N3CC[C@]4(C[C@H]4N)C3)c12 [Example 5.01B, 7-(4-((1R,3S)-1-amino-5-azaspiro[2.4]heptan-5-yl)-5-chloro-6-fluoro-8-(methylamino)-9H-pyrido[2,3-b]indol-3-yl)-4-oxo-4H-quinolizine-3-carboxylic acid]	0.516 µg/mL (≈ 0.943 µM)	1.03 µg/mL (≈ 1.88 µM)	1.03 µg/mL (≈ 1.88 µM)	0.516	0.097 µg/mL (≈ 0.177 µM)	0.516 µg/mL (≈ 0.943 µM)	0.032 µg/mL (≈ 0.0585 µM)	4.13 µg/mL (≈ 7.55 µM)	4.13 µg/mL (≈ 7.55 µM)	2.07 µg/mL (≈ 3.78 µM)	2.07 µg/mL (≈ 3.78 µM)	> 100000 nM			
CNc1cc(F)cc2c1[nH]c1ncc(-c3ccc4ccc(C(=O)O)c(=O)n4c3)c(N3CCOCC3)c12 [Example 1.02, 7-(6-fluoro-8-(methylamino)-4-morpholino-9H-pyrido[2,3-b]indol-3-yl)-4-oxo-4H-quinolizine-3-carboxylic acid]												24100 nM	159 nM	< 98 nM	< 98 nM
CNc1cc(F)c(F)c2c1[nH]c1ncc(-c3ccc4ccc(C(=O)O)c(=O)n4c3)c(N3CC[C@]4(C[C@H]4N)C3)c12 [Example 4.01C, 7-(4-((1R,3S)-1-amino-5-azaspiro[2.4]heptan-5-yl)-5,6-difluoro-8-(methylamino)-9H-pyrido[2,3-b]indol-3-yl)-4-oxo-4H-quinolizine-3-carboxylic acid]	0.592 µg/mL (≈ 1.12 µM)	0.592 µg/mL (≈ 1.12 µM)	1.19 µg/mL (≈ 2.24 µM)	0.592	0.222 µg/mL (≈ 0.418 µM)	1.19 µg/mL (≈ 2.24 µM)	0.074 µg/mL (≈ 0.139 µM)	2.37 µg/mL (≈ 4.47 µM)	2.37 µg/mL (≈ 4.47 µM)	1.19 µg/mL (≈ 2.24 µM)	2.37 µg/mL (≈ 4.47 µM)	> 100000 nM	< 98 nM	< 98 nM	< 98 nM
CNc1cc(F)c(F)c2c1[nH]c1ncc(-c3ccc4ccc(C(=O)O)c(=O)n4c3)c(N3CC[C@]4(C[C@@H]4N)C3)c12 [Example 4.01D, 7-(4-((1S,3S)-1-amino-5-azaspiro[2.4]heptan-5-yl)-5,6-difluoro-8-(methylamino)-9H-pyrido[2,3-b]indol-3-yl)-4-oxo-4H-quinolizine-3-carboxylic acid]	0.592 µg/mL (≈ 1.12 µM)	1.19 µg/mL (≈ 2.24 µM)	1.19 µg/mL (≈ 2.24 µM)	1.186	0.111 µg/mL (≈ 0.209 µM)	0.592 µg/mL (≈ 1.12 µM)	0.037 µg/mL (≈ 0.0697 µM)	4.74 µg/mL (≈ 8.94 µM)	4.74 µg/mL (≈ 8.94 µM)	1.19 µg/mL (≈ 2.24 µM)	2.37 µg/mL (≈ 4.47 µM)	> 100000 nM	< 98 nM	< 98 nM	< 98 nM
CNc1cc(F)c(F)c2c1[nH]c1ncc(-c3ccc4ccc(C(=O)O)c(=O)n4c3)c(N3CC[C@@]4(C[C@H]4N)C3)c12 [Example 4.01B, 7-(4-((1R,3R)-1-amino-5-azaspiro[2.4]heptan-5-yl)-5,6-difluoro-8-(methylamino)-9H-pyrido[2,3-b]indol-3-yl)-4-oxo-4H-quinolizine-3-carboxylic acid]												> 100000 nM	< 98 nM	< 98 nM	< 98 nM
CNc1cc(F)c(F)c2c1[nH]c1ncc(-c3ccc4ccc(C(=O)O)c(=O)n4c3)c(N3CC[C@@H]4CCN(C)[C@@H]4C3)c12 [Example 3.04B, 7-[4-[(3aS,7aS)-1-methyl-3,3a,4,5,7,7a-hexahydro-2H-pyrrolo[2,3-c]pyridin-6-yl]-5,6-difluoro-8-(methylamino)-9H-pyrido[2,3-b]indol-3-yl]-4-oxo-quinolizine-3-carboxylic acid]	0.436 µg/mL (≈ 0.781 µM)	0.436 µg/mL (≈ 0.781 µM)	0.436 µg/mL (≈ 0.781 µM)	0.436	0.164 µg/mL (≈ 0.294 µM)	1.75 µg/mL (≈ 3.13 µM)	0.027 µg/mL (≈ 0.0483 µM)	1.75 µg/mL (≈ 3.13 µM)	1.75 µg/mL (≈ 3.13 µM)	0.873 µg/mL (≈ 1.56 µM)	1.75 µg/mL (≈ 3.13 µM)	10800 nM	< 98 nM	< 98 nM	< 98 nM
CNc1cc(F)c(C#N)c2c1[nH]c1ncc(-c3ccc4ccc(C(=O)O)c(=O)n4c3)c(N3CC4C(N(C)C)CO[C@@H]4C3)c12 (stereo partly drawn) [Example 1.15, 7-[5-cyano-4-[cis-3-(dimethylamino)-2,3,3a,4,6,6a-hexahydrofuro[2,3-c]pyrrol-5-yl]-6-fluoro-8-(methylamino)-9H-pyrido[2,3-b]indol-3-yl]-4-oxo-quinolizine-3-carboxylic acid]												75400 nM	103 nM	< 98 nM	< 98 nM
CNc1cc(F)c(Cl)c2c1[nH]c1ncc(-c3ccc4ccc(C(=O)O)c(=O)n4c3)c(N3CC[C@@]4(C[C@H]4N)C3)c12 [Example 5.01C, 7-(4-((1R,3R)-1-amino-5-azaspiro[2.4]heptan-5-yl)-5-chloro-6-fluoro-8-(methylamino)-9H-pyrido[2,3-b]indol-3-yl)-4-oxo-4H-quinolizine-3-carboxylic acid]	0.516 µg/mL (≈ 0.943 µM)	0.258 µg/mL (≈ 0.472 µM)	0.516 µg/mL (≈ 0.943 µM)	0.258	0.194 µg/mL (≈ 0.355 µM)	0.258 µg/mL (≈ 0.472 µM)	0.032 µg/mL (≈ 0.0585 µM)	2.07 µg/mL (≈ 3.78 µM)	2.07 µg/mL (≈ 3.78 µM)	1.03 µg/mL (≈ 1.88 µM)	2.07 µg/mL (≈ 3.78 µM)	> 100000 nM	< 98 nM	< 98 nM	< 98 nM
CNc1cc(F)c(Cl)c2c1[nH]c1ncc(-c3ccc4ccc(C(=O)O)c(=O)n4c3)c(N3CC[C@@]4(C[C@@H]4N)C3)c12 (single isomer, unassigned) [Example 5.01A]	1.03 µg/mL (≈ 1.88 µM)	1.03 µg/mL (≈ 1.88 µM)	1.03 µg/mL (≈ 1.88 µM)	0.516	0.194 µg/mL (≈ 0.355 µM)	0.516 µg/mL (≈ 0.943 µM)	0.032 µg/mL (≈ 0.0585 µM)	2.07 µg/mL (≈ 3.78 µM)	4.13 µg/mL (≈ 7.55 µM)	2.07 µg/mL (≈ 3.78 µM)	2.07 µg/mL (≈ 3.78 µM)	> 100000 nM			
